Here are results for 3 substances from publication PMC10762078, “Role of UPF1-LIN28A interaction during early differentiation of pluripotent stem cells” (Nature Communications, 2024).

Assay [1] deals with nonsense-mediated mRNA decay (NMD). The assay can be described thus: NMD reporter mRNA by RT-qPCR in HeLa cells without LIN28A, with CPP-peptides (Supplementary Fig. 5c). The format is cell-based. Particulars: no LIN28A, 2 μM, n = 5. The protocol: For CPP-conjugated peptide delivery, HeLa, 293T, and PA-1 cells were incubated with CPP-conjugated peptides or CPP-FITC at 2 μM in DMEM with 10% FBS for 12 h a day before cell harvest. hPSCs were treated with CPP-conjugated peptides at 10 μM in mTeSR Plus Medium, and the peptide-containing medium was changed every day over 10 days. The ROCK inhibitor (Tocris Bioscience, Y-27632) treated-hPSCs were dissociated into single cells using Accutase (Merck, SCR005) and differentiated into ectoderm, mesoderm, and endoderm using the STEMdiff Trilineage Differentiation Kit ([…] Technologies, 05230) following the manufacturer’s protocol. Differentiated cells treated with CPP-conjugated peptides were analysed at 0, 3, and 5 days for ectoderm and endoderm, and at 0, 3, and 4 days for mesoderm. […]
cDNA was synthesised using RevertAid Reverse Transcriptase (Thermo Fisher Scientific, EP0441) with synthesised random hexamer (Macrogen) for total RNA or stem-loop primers for miRNA. For RT-qPCR reactions, the SensiFAST SYBR No-ROX kit (Meridian Bioscience) was used according to the manufacturer’s protocol. All data analysis and visualisation were conducted using R 3.6.1 [www.r-project.org] or GraphPad Prism 10. RT primers for miRNA and RT-qPCR primer sequences are provided in Supplementary Data 6. […]
On the technique in general: Real-time PCR tracks product formation cycle by cycle.

The test system of the next assay is p-UPF1 (Thr28). The assay can be described thus: Western blot of p-UPF1 (Thr28) in CPP-peptide-treated hPSCs. The format is cell-based, human. Particulars: relative to CPP-P1 = 100, n = 3. The protocol:
For CPP-conjugated peptide delivery, HeLa, 293T, and PA-1 cells were incubated with CPP-conjugated peptides or CPP-FITC at 2 μM in DMEM with 10% FBS for 12 h a day before cell harvest. hPSCs were treated with CPP-conjugated peptides at 10 μM in mTeSR Plus Medium, and the peptide-containing medium was changed every day over 10 days. The ROCK inhibitor (Tocris Bioscience, Y-27632) treated-hPSCs were dissociated into single cells using Accutase (Merck, SCR005) and differentiated into ectoderm, mesoderm, and endoderm using the STEMdiff Trilineage Differentiation Kit ([…] Technologies, 05230) following the manufacturer’s protocol. Differentiated cells treated with CPP-conjugated peptides were analysed at 0, 3, and 5 days for ectoderm and endoderm, and at 0, 3, and 4 days for mesoderm.
Protein samples were loaded for electrophoresis on sodium dodecyl sulphate (SDS) polyacrylamide gels, followed by Coomassie blue staining or transferred to nitrocellulose membranes (Cytiva) for WB. After blocking with 5% non-fat milk (Cellconic) in Tris-buffered saline with Tween-20 for 30 min at room temperature, the membranes were incubated with the following primary antibodies: anti-FLAG (GenScript, A00187; 1:2000), UPF1 (Cell Signaling Technology, 12040; 1:4000), UPF2 (Cell Signaling Technology, 11875; 1:2000), eIF4E (Cell Signaling Technology, 2067; 1:2000), β-actin (Sigma-Aldrich, A2228; 1:4000), GST (Cytiva, 27-4577-01; 1:2000), MYC (Calbiochem, OP10; 1:2000), Calnexin (Cell Signaling Technology, 2679; 1:4000), LIN28A (Cell Signaling Technology, 3978; 1:2000), pSer1096 phosphorylated UPF1 (1:2000)[58], or p-Thr28 phosphorylated UPF1 (ImmuQuest, IQ653; 1:2000). Primary antibodies were incubated overnight at 4 °C and then washed thrice with TBS-T, followed by incubation with secondary antibodies: Goat anti-Rabbit IgG (Invitrogen, 31460; 1:4000), Goat anti-Mouse IgG (Invitrogen, 31430; 1:4000), or Horse anti-Goat IgG (Vector Laboratories, PI-9500; 1:4000) for 1 h at room temperature. For pull-downed protein detection, all primary and secondary antibodies were diluted at 1:10,000. The blots were imaged using ChemiDoc XRS+ System (Bio-Rad) and the greyscale intensity values were quantified using Image Lab 3.0 software (Bio-Rad).
DAPI FITC Merge DAPI FITC Merge CHA15 H9 Pro2 H9
No peptide CPP-FITC Calnexin
For 2-day treatm ent For 4-day treatm ent […]
Student’s t-test was used. Data are presented as m ean values ± S.D (b) and mean values ± SEM (c and d). All statistical test us ed wer e two-s ided. T he m inim um num ber of independent biological replicate experim ents was a, b, and d n = 3, c n = 5. T he experim ents wer e conducted three tim es, each iteration producing consistent results. […]
(A western blot detects proteins with antibodies after separation by electrophoresis.)

Ends that are not written are not given here.

Turning to “KKKWCRKKKSSADEKRYRALKRTAERELLMNA [CPP-P8, CPP conjugated to P8]”, the “effect on NMD in absence of LIN28A” value in assay [1] was “did not affect NMD in the absence of LIN28A”.

As for KKKWCRKKKSSADEKRYRALKRTAERELLMNA [P8], the “p-UPF1 (Thr28)/Calnexin, mean” value was determined as 277% in the assay on p-UPF1 (Thr28) (CHA15, 2-day treatment); 91% with p-UPF1 (Thr28) (H9, 2-day treatment); 183% in the assay on p-UPF1 (Thr28) (H9, 4-day treatment); 250% in the assay with p-UPF1 (Thr28) (Pro2, 2-day treatment).

Take “N-QKLDQKELQLEPM-C [P1, reference compound]”: the “p-UPF1 (Thr28)/Calnexin, mean” value is 100% with p-UPF1 (Thr28) (CHA15, 2-day treatment); 100% in the assay on p-UPF1 (Thr28) (H9, 2-day treatment); 100% in the assay on p-UPF1 (Thr28) (H9, 4-day treatment); 100% in the assay with p-UPF1 (Thr28) (Pro2, 2-day treatment).
